In PubChem BioAssay AID248 (DTP/NCI, 2004):
Values joined by “and” are separate entries in the source; they are usually repeats but may differ in a detail not shown here. Equal entries are not always repeated. Toxic doses and inconclusive results are not listed.

System: L1210 leukemia ip in BDF1 mice, survival T/C
Assay: NCI In Vivo Anticancer Drug Screen. Data for tumor model L1210 Leukemia (intraperitoneal) in B6D2F1 (BDF1) mice
Settings: endpoint: mean survival time, higher = longer survival
Method in brief: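 In this screen, tumor-bearing mice given compound are compared to those given vehicle, and their survival values are reported as a treated-to-control quotient.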

[1] = dose: 100.0 mg/kg/injection, schedule: Q01DX001 (ip), vehicle: carboxymethylcellulose (CMC)
[2] = dose: 100.0 mg/kg/injection, schedule: Q01DX001 (ip), vehicle: saline
[3] = dose: 200.0 mg/kg/injection, schedule: Q01DX001 (ip), vehicle: carboxymethylcellulose (CMC)
[4] = dose: 200.0 mg/kg/injection, schedule: Q01DX001 (ip), vehicle: saline
[5] = dose: 400.0 mg/kg/injection, schedule: Q01DX001 (ip), vehicle: carboxymethylcellulose (CMC)
[6] = dose: 400.0 mg/kg/injection, schedule: Q01DX001 (ip), vehicle: saline
[7] = dose: 100.0 mg/kg/injection, schedule: Q01DX009 (ip), vehicle: saline with Tween-80
[8] = dose: 100.0 mg/kg/injection, schedule: Q04DX003 (ip), vehicle: saline with Tween-80
[9] = dose: 200.0 mg/kg/injection, schedule: Q04DX003 (ip), vehicle: saline with Tween-80
[10] = dose: 100.0 mg/kg/injection, schedule: Q04DX003 (ip), vehicle: Klucel (hydroxypropylcellulose) (HPC)
[11] = dose: 200.0 mg/kg/injection, schedule: Q04DX003 (ip), vehicle: Klucel (hydroxypropylcellulose) (HPC)
[12] = dose: 400.0 mg/kg/injection, schedule: Q04DX003 (ip), vehicle: Klucel (hydroxypropylcellulose) (HPC)

Question: With `Cc1c(C)c2ccccc2[nH]c1=O` as the molecule, how does the T/C [1] read?
Answer: 88 % of control

Question: What about the T/C [2] of the same molecule?
Answer: 100 % of control

Question: What about the T/C [3] of the same molecule?
Answer: 88 % of control

Question: What about the T/C [4] of the same molecule?
Answer: 95 % of control

Question: And the T/C [5]?
Answer: 96 % of control

Question: What about the T/C [6] of the same molecule?
Answer: 95 % of control

Question: Which T/C (dose: 100.0 mg/kg/injection, schedule: Q04DX003 (ip), vehicle: acetone) does the source give for `COc1ccccc1CNc1ncnc2nc[nH]c12` here?
Answer: 97 % of control

Question: What about the T/C (dose: 200.0 mg/kg/injection, schedule: Q04DX003 (ip), vehicle: acetone) of the same molecule?
Answer: 94 % of control

Question: What about the T/C (dose: 400.0 mg/kg/injection, schedule: Q04DX003 (ip), vehicle: acetone) of the same molecule?
Answer: 107 % of control

Question: With `Cc1nc2nc(N)nc(N)c2nc1C` as the molecule, how does the T/C (dose: 15.63 mg/kg/injection, schedule: Q01DX Z (ip), vehicle: carboxymethylcellulose (CMC)) read?
Answer: 103 % of control

Question: What about the T/C (dose: 31.25 mg/kg/injection, schedule: Q01DX Z (ip), vehicle: carboxymethylcellulose (CMC)) of the same molecule?
Answer: 93 % of control

Question: What about the T/C (dose: 50.0 mg/kg/injection, schedule: Q01DX001 (ip), vehicle: saline) of the same molecule?
Answer: 117 % of control

Question: What about the T/C (dose: 62.5 mg/kg/injection, schedule: Q01DX Z (ip), vehicle: carboxymethylcellulose (CMC)) of the same molecule?
Answer: 91 % of control

Question: What about the T/C [2] of the same molecule?
Answer: 102 % of control

Question: And the T/C (dose: 125.0 mg/kg/injection, schedule: Q01DX Z (ip), vehicle: carboxymethylcellulose (CMC))?
Answer: 92 % of control

Question: And the T/C [4]?
Answer: 102 % of control

Question: And the T/C [6]?
Answer: 100 % of control

Question: Which T/C (dose: 50.0 mg/kg/injection, schedule: Q01DX009 (ip), vehicle: saline with Tween-80) does the source give for `O=C1C(N2CCOCC2)=Cc2cccc3cccc1c23` here?
Answer: 103 % of control

Question: And the T/C [7]?
Answer: 97 % of control

Question: And the T/C [8]?
Answer: 92 % of control

Question: What about the T/C (dose: 200.0 mg/kg/injection, schedule: Q01DX009 (ip), vehicle: saline with Tween-80) of the same molecule?
Answer: 97 % of control and 90 % of control

Question: What about the T/C [9] of the same molecule?
Answer: 97 % of control

Question: Which T/C [1] does the source give for `CCCCCCCCCCCCSCCSCCCCCCCCCCCC` here?
Answer: 93 % of control

Question: And the T/C [3]?
Answer: 86 % of control

Question: And the T/C [5]?
Answer: 102 % of control

Question: Which T/C [7] does the source give for `COC(=O)C1OC1(C)c1ccc(C)cc1` (stereo not drawn) here?
Answer: 92 % of control

Question: What about the T/C (dose: 400.0 mg/kg/injection, schedule: Q01DX009 (ip), vehicle: saline with Tween-80) of the same molecule?
Answer: 106 % of control

Question: How did the T/C (dose: 100.0 mg/kg/injection, schedule: Q04DX002 (ip), vehicle: saline with Tween-80) turn out when `Oc1ccccc1C=Nc1ccc(Cl)cc1` was run?
Answer: 105 % of control

Question: What about the T/C (dose: 200.0 mg/kg/injection, schedule: Q04DX002 (ip), vehicle: saline with Tween-80) of the same molecule?
Answer: 105 % of control

Question: What about the T/C (dose: 400.0 mg/kg/injection, schedule: Q04DX002 (ip), vehicle: saline with Tween-80) of the same molecule?
Answer: 97 % of control

Question: For `Nc1cccnc1`, which T/C (dose: 5.0 mg/kg/injection, schedule: Q01DX009 (ip), vehicle: saline) is on record?
Answer: 104 % of control

Question: What about the T/C (dose: 10.0 mg/kg/injection, schedule: Q01DX009 (ip), vehicle: saline) of the same molecule?
Answer: 95 % of control

Question: And the T/C (dose: 20.0 mg/kg/injection, schedule: Q01DX009 (ip), vehicle: saline)?
Answer: 98 % of control

Question: `O=[N+]([O-])c1ccc(S(=O)(=O)O/N=C2\c3ccccc3-c3ccc([N+](=O)[O-])cc32)cc1` was tested. Which T/C (dose: 100.0 mg/kg/injection, schedule: Q01DX009 (ip), vehicle: Klucel (hydroxypropylcellulose) (HPC)) did it give?
Answer: 161 % of control

Question: What about the T/C [10] of the same molecule?
Answer: 97 % of control

Question: What about the T/C (dose: 200.0 mg/kg/injection, schedule: Q01DX009 (ip), vehicle: Klucel (hydroxypropylcellulose) (HPC)) of the same molecule?
Answer: 109 % of control

Question: What about the T/C [11] of the same molecule?
Answer: 98 % of control

Question: What about the T/C (dose: 400.0 mg/kg/injection, schedule: Q01DX009 (ip), vehicle: Klucel (hydroxypropylcellulose) (HPC)) of the same molecule?
Answer: 109 % of control

Question: What about the T/C [12] of the same molecule?
Answer: 95 % of control

Question: What does the source list for `O=C(Nc1ccc(C(=O)c2ccccc2)cc1)Nc1ccc(C(=O)c2ccccc2)cc1`?
Answer: T/C (dose: 20.0 mg/kg/injection, schedule: Q01DX009 (ip), vehicle: saline with Tween-80): 95 % of control; T/C (dose: 40.0 mg/kg/injection, schedule: Q01DX009 (ip), vehicle: saline with Tween-80): 87 % of control; T/C (dose: 80.0 mg/kg/injection, schedule: Q01DX009 (ip), vehicle: saline with Tween-80): 90 % of control; T/C (dose: 160.0 mg/kg/injection, schedule: Q01DX009 (ip), vehicle: saline with Tween-80): 91 % of control; T/C (dose: 320.0 mg/kg/injection, schedule: Q01DX009 (ip), vehicle: saline with Tween-80): 93 % of control

Question: Which T/C [10] does the source give for `Cc1cc(Sc2cc(C)[n+]([O-])c(C)c2)cc(C)[n+]1[O-]` here?
Answer: 103 % of control

Question: What about the T/C [11] of the same molecule?
Answer: 100 % of control

Question: And the T/C [12]?
Answer: 114 % of control

Question: `O=C(Nc1cccc2ccccc12)OCc1ccccc1` was tested. Which T/C (dose: 100.0 mg/kg/injection, schedule: Q04DX002 (ip), vehicle: Klucel (hydroxypropylcellulose) (HPC)) did it give?
Answer: 108 % of control

Question: What about the T/C (dose: 200.0 mg/kg/injection, schedule: Q04DX002 (ip), vehicle: Klucel (hydroxypropylcellulose) (HPC)) of the same molecule?
Answer: 89 % of control

Question: And the T/C (dose: 400.0 mg/kg/injection, schedule: Q04DX002 (ip), vehicle: Klucel (hydroxypropylcellulose) (HPC))?
Answer: 93 % of control

Question: What does the source list for `CSc1ccc2[nH]c3c(c2c1)CCNC3`?
Answer: T/C [8]: 108 % of control; T/C [9]: 105 % of control; T/C (dose: 400.0 mg/kg/injection, schedule: Q04DX003 (ip), vehicle: saline with Tween-80): 98 % of control

Question: How did the T/C [2] turn out when `CNCCc1ccc(O)cc1` was run?
Answer: 104 % of control

Question: And the T/C [4]?
Answer: 102 % of control

Question: And the T/C [6]?
Answer: 104 % of control

Question: For `CCN1/C(=C/C(C)=C/c2[se]c3ccc(C)cc3[n+]2CC)[Se]c2ccc(C)cc21`, which T/C (dose: 2.0 mg/kg/injection, schedule: Q01DX001 (ip), vehicle: other) is on record?
Answer: 109 % of control

Question: What about the T/C (dose: 4.0 mg/kg/injection, schedule: Q01DX001 (ip), vehicle: other) of the same molecule?
Answer: 114 % of control
